# How the values were obtained:
# [1] = biological target: T1, Human recombinant integrin α5β1 (Homo sapiens, UniProt P05556+P08648); assay: Thermal shift assay (differential scanning fluorimetry), α5β1; format: binding; settings: α5β1, 20 μM Compound A
# T1 construct: purchased R&D Systems
# Method: Differential scanning fluorimetry was performed on a LightCycler 480 II, real-time PCR instrument (Roche Diagnostics). Human recombinant integrins from R&D Systems (αvβ1, αvβ3 and α5β1) were reconstituted at a concentration of […] in assay buffer (20 mM HEPES, pH=7.3, 100 mM NaCl, 1 mM MgCl2, 1 mM MnCl2) and diluted in assay buffer with Sypro orange (SIGMA) to a final concentration of 400 nM integrin and 5× Sypro orange. A volume of 4.9 μL of this mixture of protein and dye was transferred to a 384-well plate and 100 nL of DMSO or Compound A, dissolved in DMSO, were added using an Echo 555 instrument (Labcyte). The final concentration of Compound A in the assay was 20 μM. After mixing, the assay plate was sealed, spun at 1,000×g for two minutes, and subsequently heated from 25 to 99° C. over the course of 31 min in the LightCycler 480 II instrument. Fluorescence intensity was measured using excitation/emission wavelengths of 465 and 580 nm, respectively. Changes in protein thermal stability (ΔTm) upon compound binding were analyzed by using LightCycler 480 (software provided by the manufacturer).
# [2] = tested on: male obese ZSF1 rats (diabetic nephropathy model); assay: ZSF1 rat study: plasma triglyceride and cholesterol; format: in vivo; settings: for Plasma Triglyceride / plasma cholesterol levels: obese ZSF1 rats; for plasma cholesterol levels: in mg/dL (unit assumed)
# Method: The effects of Compound A (“A”) on renal function, plasma triglycerides, plasma cholesterol, kidney collagen I, kidney collagen III, renal histology, glomerular filtration rate, fibrosis score, and mRNA gene expression (profibrotic genes and integrin β3) were evaluated in male obese ZSF1 rats (a hybrid F1 of Zucker diabetic fatty rat and spontaneously hypertensive heart failure rat; a diabetic nephropathy model) when administered as in-feed for 28 weeks. Sixty obese male ZSF1 rats were randomized to five groups: Obese control (n=12), Compound A 60 mpk (n=12), Compound A 200 mpk (n=12), Compound A 400 mpk (n=12), Enalapril 10 mpk (n=12); Eight lean male ZSF1 rats were used for normal control. Renal functional changes were monitored by blood and urine analysis following in-feed dosing for 28 weeks. Compound exposure was also monitored during the study.
# [3] = tested on: human podocytes; assay: Oris cell migration assay, podocyte motility, Compound A alone, vitronectin coated plate; format: cell-based; settings: for % migrated cells vs control cells: 48 h, VN plate
# Method: The effects of Compound A on podocyte motility were evaluated using Oris cell migration assay kit in 96-well plates (coated with either vitronectin or fibronectin). The Oris™ Cell Migration Assay is designed with a unique cell seeding stopper or biocompatible gel, detection mask, and stopper tool. These unique plate designs generate highly reproducible results using a microscope, digital imaging system. 7 to 10-day differentiated human podocytes (100 ul of 50,000 cells/ml) were seeded in each well of the ORIS plate. After sitting at room temperature for about 15 minutes, the plate was placed into 37° C. incubator and podocytes were incubated with complete podocyte medium for 24 h. Stoppers from each well (keeping stoppers in 4 wells which were served as time zero control) were carefully removed, medium discarded, and fresh (10% FBS) podocyte medium added to each well. Podocytes were pretreated with Compound A (10 uM to 0.01 nM) for 2 h prior to puromycin animonucleoside (PAN, 30 ug/ml or 15 ug/ml) treatment. Podocytes were then treated with PAN in the presence or absence of Compound A at different concentrations (ranging from 10 uM to 0.01 nM) in 10% FBS medium for 48 h. Podocytes were then fixed with 4% paraformaldehyde in PBS for 30 minutes (adding 50 ul to each well). After discarding the fixative, podocytes were stained with Hoechst 33342 (stock […] working concentration at 5 uM) for 30 min. Podocytes were then washed with PBS three times. Finally, after adding 100 ul of PBS to each well, plate was sealed with a black cover and kept at 4° C. until image analysis. Images of podocyte motility were captured using Acumen eX3 (manufacturer TTP Labtech Ltd. address: Melbourn Science Park, Melbourn, Hertfordshire SG8 6EE, United Kingdom).
# Effect of Compound A (“A”) alone on human podocyte motility was examined using Oris cell migration assay in vitronectin (VN) coated-96-well plate.
# T1 sequence (P08648 42-995 limits assumed): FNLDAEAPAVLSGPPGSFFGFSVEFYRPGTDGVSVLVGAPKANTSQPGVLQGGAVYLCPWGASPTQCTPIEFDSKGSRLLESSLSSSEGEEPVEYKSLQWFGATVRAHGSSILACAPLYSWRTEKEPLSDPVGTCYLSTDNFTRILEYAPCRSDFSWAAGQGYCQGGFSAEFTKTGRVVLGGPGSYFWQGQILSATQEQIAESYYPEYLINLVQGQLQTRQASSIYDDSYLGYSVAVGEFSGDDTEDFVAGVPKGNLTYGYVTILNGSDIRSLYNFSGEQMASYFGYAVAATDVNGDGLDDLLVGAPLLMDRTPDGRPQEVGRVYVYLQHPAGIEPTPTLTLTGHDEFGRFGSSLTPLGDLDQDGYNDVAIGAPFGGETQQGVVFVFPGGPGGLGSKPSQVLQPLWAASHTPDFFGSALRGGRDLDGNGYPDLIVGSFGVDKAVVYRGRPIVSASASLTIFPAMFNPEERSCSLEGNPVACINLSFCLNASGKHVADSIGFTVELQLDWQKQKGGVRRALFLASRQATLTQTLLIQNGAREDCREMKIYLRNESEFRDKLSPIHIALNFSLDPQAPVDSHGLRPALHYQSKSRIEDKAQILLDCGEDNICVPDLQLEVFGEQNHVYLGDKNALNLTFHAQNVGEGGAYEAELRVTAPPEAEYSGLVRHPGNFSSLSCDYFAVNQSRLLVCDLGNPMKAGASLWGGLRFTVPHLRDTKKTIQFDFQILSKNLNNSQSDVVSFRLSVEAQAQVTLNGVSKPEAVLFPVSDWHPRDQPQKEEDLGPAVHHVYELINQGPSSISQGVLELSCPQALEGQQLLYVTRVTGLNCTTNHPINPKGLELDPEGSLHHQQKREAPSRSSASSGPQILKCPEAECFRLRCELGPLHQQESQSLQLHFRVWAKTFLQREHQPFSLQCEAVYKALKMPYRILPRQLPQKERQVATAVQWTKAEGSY
# T1 sequence (P05556 21-728 limits assumed): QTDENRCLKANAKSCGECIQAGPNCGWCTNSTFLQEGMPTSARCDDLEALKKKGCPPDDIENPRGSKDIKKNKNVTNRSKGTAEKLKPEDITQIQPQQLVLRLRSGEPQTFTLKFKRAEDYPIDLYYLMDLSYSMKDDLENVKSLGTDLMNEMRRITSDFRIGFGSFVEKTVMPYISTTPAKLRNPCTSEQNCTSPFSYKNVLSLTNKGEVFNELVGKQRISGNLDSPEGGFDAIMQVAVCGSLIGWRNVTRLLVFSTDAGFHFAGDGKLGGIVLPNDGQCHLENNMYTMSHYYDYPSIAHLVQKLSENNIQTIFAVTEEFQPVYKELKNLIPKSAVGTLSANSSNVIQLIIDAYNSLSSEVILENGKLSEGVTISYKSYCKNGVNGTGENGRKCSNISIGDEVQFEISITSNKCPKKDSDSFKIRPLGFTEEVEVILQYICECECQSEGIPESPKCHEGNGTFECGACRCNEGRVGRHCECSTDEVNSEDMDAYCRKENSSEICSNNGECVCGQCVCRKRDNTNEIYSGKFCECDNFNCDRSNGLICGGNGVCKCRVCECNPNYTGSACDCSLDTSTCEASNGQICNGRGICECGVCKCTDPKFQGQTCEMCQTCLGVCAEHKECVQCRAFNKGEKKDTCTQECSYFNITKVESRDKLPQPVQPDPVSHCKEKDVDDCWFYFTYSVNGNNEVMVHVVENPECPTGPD
smiles,measurement,setting,value
"COc1ccc([C@H](CC(=O)O)N2CCN(CCCc3ccc4c(n3)NCCC4)C2=O)cn1 [Compound A, 3-{2-Oxo-3-[3-(5,6,7,8-tetrahydro-[1,8]naphthyridin-2-yl)-propyl]imidazolidin-1-yl}-3 (S)-(6-methoxy-pyridin-3-yl)-propionic acid]",ΔTm at 20 µM,[1]; first of two experiments,8.1 °C
same,ΔTm at 20 µM,[1]; second of two experiments,14 °C
same,effect on plasma triglyceride levels,[2]; 200 mpk at week 4 and 400 mpk at week 16 and 28,significantly decreased
same,effect on plasma cholesterol levels,"[2]; 200 mpk at week 28 and 400 mpk at week 16, 21, 24, and 28",significantly decreased
same,plasma TG and cholesterol,"[2]; high doses, obese ZSF-1 rats vs untreated obese ZSF-1 rats (summary)",improvement of plasma TG and cholesterol
same,Plasma Triglyceride,"[2]; 60 mpk in-feed, week 2",2535.3 ± 170.6 mg/dL
same,plasma cholesterol levels,"[2]; 60 mpk in-feed, week 2",229.3 ± 9.6
same,Plasma Triglyceride,"[2]; 60 mpk in-feed, week 4",2807.5 ± 143.4 mg/dL
same,plasma cholesterol levels,"[2]; 60 mpk in-feed, week 4",262.7 ± 10.5
same,Plasma Triglyceride,"[2]; 60 mpk in-feed, week 6",2873.2 ± 116.5 mg/dL
same,plasma cholesterol levels,"[2]; 60 mpk in-feed, week 6",261.2 ± 9.9
same,Plasma Triglyceride,"[2]; 60 mpk in-feed, week 8",3187.9 ± 157.1 mg/dL
same,plasma cholesterol levels,"[2]; 60 mpk in-feed, week 8",289.1 ± 9.5
same,Plasma Triglyceride,"[2]; 60 mpk in-feed, week 12",3138.5 ± 168.9 mg/dL
same,plasma cholesterol levels,"[2]; 60 mpk in-feed, week 12",315.4 ± 13.2
same,Plasma Triglyceride,"[2]; 60 mpk in-feed, week 16",3120.3 ± 191.6 mg/dL
same,plasma cholesterol levels,"[2]; 60 mpk in-feed, week 16",357.8 ± 13.3
same,Plasma Triglyceride,"[2]; 60 mpk in-feed, week 21",2933.4 ± 317.5 mg/dL
same,plasma cholesterol levels,"[2]; 60 mpk in-feed, week 21",392.9 ± 20.6
same,Plasma Triglyceride,"[2]; 60 mpk in-feed, week 24",3093.3 ± 355.2 mg/dL
same,plasma cholesterol levels,"[2]; 60 mpk in-feed, week 24",448.0 ± 23.8
same,Plasma Triglyceride,"[2]; 60 mpk in-feed, week 28",3218.7 ± 427.5 mg/dL
same,plasma cholesterol levels,"[2]; 60 mpk in-feed, week 28",495.7 ± 29.4
same,Plasma Triglyceride,"[2]; 60 mpk in-feed, week −2",2046.8 ± 72.0 mg/dL
same,plasma cholesterol levels,"[2]; 60 mpk in-feed, week −2",192.0 ± 4.5
same,Plasma Triglyceride,"[2]; 200 mpk in-feed, week 2",2111.1 ± 123.5 mg/dL
same,plasma cholesterol levels,"[2]; 200 mpk in-feed, week 2",205.4 ± 7.8
same,Plasma Triglyceride,"[2]; 200 mpk in-feed, week 4",2592.4 ± 206.8 mg/dL
same,plasma cholesterol levels,"[2]; 200 mpk in-feed, week 4",243.5 ± 9.2
same,Plasma Triglyceride,"[2]; 200 mpk in-feed, week 6",2534.6 ± 185.5 mg/dL
same,plasma cholesterol levels,"[2]; 200 mpk in-feed, week 6",233.7 ± 9.1
same,Plasma Triglyceride,"[2]; 200 mpk in-feed, week 8",3325.3 ± 189.8 mg/dL
same,plasma cholesterol levels,"[2]; 200 mpk in-feed, week 8",289.3 ± 9.3
same,Plasma Triglyceride,"[2]; 200 mpk in-feed, week 12",3188.3 ± 191.4 mg/dL
same,plasma cholesterol levels,"[2]; 200 mpk in-feed, week 12",315.9 ± 11.2
same,Plasma Triglyceride,"[2]; 200 mpk in-feed, week 16",2930.4 ± 217.5 mg/dL
same,plasma cholesterol levels,"[2]; 200 mpk in-feed, week 16",346.8 ± 12.1
same,Plasma Triglyceride,"[2]; 200 mpk in-feed, week 21",2717.2 ± 199.8 mg/dL
same,plasma cholesterol levels,"[2]; 200 mpk in-feed, week 21",366.7 ± 14.1
same,Plasma Triglyceride,"[2]; 200 mpk in-feed, week 24",2923.8 ± 267.3 mg/dL
same,plasma cholesterol levels,"[2]; 200 mpk in-feed, week 24",415.1 ± 19.6
same,Plasma Triglyceride,"[2]; 200 mpk in-feed, week 28",2632.8 ± 269.6 mg/dL
same,plasma cholesterol levels,"[2]; 200 mpk in-feed, week 28",451.9 ± 23.6
same,Plasma Triglyceride,"[2]; 200 mpk in-feed, week −2",1965.3 ± 83.6 mg/dL
same,plasma cholesterol levels,"[2]; 200 mpk in-feed, week −2",189.5 ± 6.6
same,Plasma Triglyceride,"[2]; 400 mpk in-feed, week 2",2415.9 ± 119.5 mg/dL
same,plasma cholesterol levels,"[2]; 400 mpk in-feed, week 2",229.8 ± 6.0
same,Plasma Triglyceride,"[2]; 400 mpk in-feed, week 4",2763.1 ± 146.9 mg/dL
same,plasma cholesterol levels,"[2]; 400 mpk in-feed, week 4",252.3 ± 5.3
same,Plasma Triglyceride,"[2]; 400 mpk in-feed, week 6",2715.6 ± 111.4 mg/dL
same,plasma cholesterol levels,"[2]; 400 mpk in-feed, week 6",238.9 ± 6.6
same,Plasma Triglyceride,"[2]; 400 mpk in-feed, week 8",3185.0 ± 191.8 mg/dL
same,plasma cholesterol levels,"[2]; 400 mpk in-feed, week 8",278.8 ± 9.5
same,Plasma Triglyceride,"[2]; 400 mpk in-feed, week 12",3086.5 ± 121.3 mg/dL
same,plasma cholesterol levels,"[2]; 400 mpk in-feed, week 12",306.4 ± 7.0
same,Plasma Triglyceride,"[2]; 400 mpk in-feed, week 16",2648.9 ± 167.8 mg/dL
same,plasma cholesterol levels,"[2]; 400 mpk in-feed, week 16",304.6 ± 11.1
same,Plasma Triglyceride,"[2]; 400 mpk in-feed, week 21",2523.9 ± 220.7 mg/dL
same,plasma cholesterol levels,"[2]; 400 mpk in-feed, week 21",351.4 ± 13.8
same,Plasma Triglyceride,"[2]; 400 mpk in-feed, week 24",2439.5 ± 162.4 mg/dL
same,plasma cholesterol levels,"[2]; 400 mpk in-feed, week 24",374.7 ± 12.8
same,Plasma Triglyceride,"[2]; 400 mpk in-feed, week 28",2215.7 ± 179.3 mg/dL
same,plasma cholesterol levels,"[2]; 400 mpk in-feed, week 28",391.2 ± 14.7
same,Plasma Triglyceride,"[2]; 400 mpk in-feed, week −2",2211.5 ± 117.2 mg/dL
same,plasma cholesterol levels,"[2]; 400 mpk in-feed, week −2",195.5 ± 5.5
same,"human podocyte motility, Compound A alone vs vehicle","[3]; 48 hours, vitronectin coated plate",significant inhibition of motility in a dose-dependent manner
same,% migrated cells vs control cells,[3]; A alone 0.01 nM,39.7%
same,% migrated cells vs control cells,[3]; A alone 0.0316 nM,43.7%
same,% migrated cells vs control cells,[3]; A alone 0.1 nM,38.8%
same,% migrated cells vs control cells,[3]; A alone 0.316 nM,38.6%
same,% migrated cells vs control cells,[3]; A alone 1 nM,33.4%
same,% migrated cells vs control cells,[3]; A alone 3.16 nM,30.6%
same,% migrated cells vs control cells,[3]; A alone 10 nM,19.2%
same,% migrated cells vs control cells,[3]; A alone 100 nM,20.5%
same,% migrated cells vs control cells,[3]; A alone 1 uM,17.9%
same,% migrated cells vs control cells,[3]; A alone 10 uM,17.9%
